US12421212B2, “Substituted benzenecarboxamides as IL-17A modulators” (DiCE Alpha, Inc., priority 2019, dated 2025)

Target: T1, IL-17A/A (Homo sapiens, UniProt Q16552)
T1 construct: purchased Genscript Z03228
T1 sequence (Q16552 24-155): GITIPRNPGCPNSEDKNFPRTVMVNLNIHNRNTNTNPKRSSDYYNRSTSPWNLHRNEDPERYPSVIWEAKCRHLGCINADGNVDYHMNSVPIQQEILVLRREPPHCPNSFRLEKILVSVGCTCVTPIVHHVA
Experiment: IL-17A/A HEK-Blue Cell Assay
Type: cell-based
Conditions: HEK-Blue IL-17A reporter cell line, SEAP readout at A630, 20 hours incubation with IL-17A/A, top concentration 10 uM, 1 uM or 0.3 uM; for IC50: read-out: IL-17A/A inhibition (pIC50) (converted)

| IC50 [nM] | Structure (SMILES) | IL-17A/A inhibition (pIC50) |
| --- | --- | --- |
| < 10 | CCC(=O)N[C@@H](C(=O)N1CCN(C)CC1)[C@@H](C)c1ccc(NC(=O)[C@@H](NC(=O)c2ccnn2C2CCCC2)C2CCCCCC2)c(F)c1 [Compound 273] | – |
| < 10 | CCc1nonc1C(=O)N[C@H](C(=O)Nc1ccc([C@H](C)[C@@H](NC(=O)N(CC)C2CC2)C(=O)N2CCN(C)CC2)cc1F)[C@H]1CC[C@H](C)CC1 [Compound 574] | – |
| < 10 | CCC(=O)N[C@@H](C(=O)N1CCC(C)(O)CC1)[C@@H](C)c1ccc(NC(=O)[C@@H](NC(=O)C(F)(F)c2cnn(CC)c2)[C@H]2CC[C@H](C)CC2)c(F)c1 [Compound 533] | – |
| – | CCC(=O)N[C@H](Cc1ccc(NC(=O)[C@H](CCC2CCCCC2)NC(=O)c2ccnn2CC)c(F)c1)C(=O)N1CCN(C)CC1 [Compound 729] | X2b (compounds were evaluated up to 1 uM and inhibited activity at 1 uM by less than 20%) |
